Measurements published in patent US10246453B2, “Benzenesulfonamide compounds and their use as therapeutic agents” (Xenon Pharmaceuticals Inc., priority 2016, dated 2019).
Structures can show the parent of a compound that is named as a salt. Where two headings read alike, the source gives them in different places.

Legend:
[1] = target: NaV1.6 (Homo sapiens (Human), UniProt Q9UQD0); experiment: Sodium Influx Assay (Flux), NaV1.6
[2] = target: NaV1.1 (Homo sapiens (Human), UniProt P35498); experiment: Sodium Influx Assay (Flux), NaV1.1; type: cell-based; conditions: Trex HEK293 cells, ANG2 dye; arithmetic mean
[3] = target: NaV1.5 (Homo sapiens (Human), UniProt Q14524); experiment: Sodium Influx Assay (Flux), NaV1.5; conditions: read-out: Flux NaV1.5 IC50; Trex HEK293 cells, ANG2 dye; arithmetic mean
Chain of NaV1.5 (Q14524 other isoform, or with tags, fused parts or gaps): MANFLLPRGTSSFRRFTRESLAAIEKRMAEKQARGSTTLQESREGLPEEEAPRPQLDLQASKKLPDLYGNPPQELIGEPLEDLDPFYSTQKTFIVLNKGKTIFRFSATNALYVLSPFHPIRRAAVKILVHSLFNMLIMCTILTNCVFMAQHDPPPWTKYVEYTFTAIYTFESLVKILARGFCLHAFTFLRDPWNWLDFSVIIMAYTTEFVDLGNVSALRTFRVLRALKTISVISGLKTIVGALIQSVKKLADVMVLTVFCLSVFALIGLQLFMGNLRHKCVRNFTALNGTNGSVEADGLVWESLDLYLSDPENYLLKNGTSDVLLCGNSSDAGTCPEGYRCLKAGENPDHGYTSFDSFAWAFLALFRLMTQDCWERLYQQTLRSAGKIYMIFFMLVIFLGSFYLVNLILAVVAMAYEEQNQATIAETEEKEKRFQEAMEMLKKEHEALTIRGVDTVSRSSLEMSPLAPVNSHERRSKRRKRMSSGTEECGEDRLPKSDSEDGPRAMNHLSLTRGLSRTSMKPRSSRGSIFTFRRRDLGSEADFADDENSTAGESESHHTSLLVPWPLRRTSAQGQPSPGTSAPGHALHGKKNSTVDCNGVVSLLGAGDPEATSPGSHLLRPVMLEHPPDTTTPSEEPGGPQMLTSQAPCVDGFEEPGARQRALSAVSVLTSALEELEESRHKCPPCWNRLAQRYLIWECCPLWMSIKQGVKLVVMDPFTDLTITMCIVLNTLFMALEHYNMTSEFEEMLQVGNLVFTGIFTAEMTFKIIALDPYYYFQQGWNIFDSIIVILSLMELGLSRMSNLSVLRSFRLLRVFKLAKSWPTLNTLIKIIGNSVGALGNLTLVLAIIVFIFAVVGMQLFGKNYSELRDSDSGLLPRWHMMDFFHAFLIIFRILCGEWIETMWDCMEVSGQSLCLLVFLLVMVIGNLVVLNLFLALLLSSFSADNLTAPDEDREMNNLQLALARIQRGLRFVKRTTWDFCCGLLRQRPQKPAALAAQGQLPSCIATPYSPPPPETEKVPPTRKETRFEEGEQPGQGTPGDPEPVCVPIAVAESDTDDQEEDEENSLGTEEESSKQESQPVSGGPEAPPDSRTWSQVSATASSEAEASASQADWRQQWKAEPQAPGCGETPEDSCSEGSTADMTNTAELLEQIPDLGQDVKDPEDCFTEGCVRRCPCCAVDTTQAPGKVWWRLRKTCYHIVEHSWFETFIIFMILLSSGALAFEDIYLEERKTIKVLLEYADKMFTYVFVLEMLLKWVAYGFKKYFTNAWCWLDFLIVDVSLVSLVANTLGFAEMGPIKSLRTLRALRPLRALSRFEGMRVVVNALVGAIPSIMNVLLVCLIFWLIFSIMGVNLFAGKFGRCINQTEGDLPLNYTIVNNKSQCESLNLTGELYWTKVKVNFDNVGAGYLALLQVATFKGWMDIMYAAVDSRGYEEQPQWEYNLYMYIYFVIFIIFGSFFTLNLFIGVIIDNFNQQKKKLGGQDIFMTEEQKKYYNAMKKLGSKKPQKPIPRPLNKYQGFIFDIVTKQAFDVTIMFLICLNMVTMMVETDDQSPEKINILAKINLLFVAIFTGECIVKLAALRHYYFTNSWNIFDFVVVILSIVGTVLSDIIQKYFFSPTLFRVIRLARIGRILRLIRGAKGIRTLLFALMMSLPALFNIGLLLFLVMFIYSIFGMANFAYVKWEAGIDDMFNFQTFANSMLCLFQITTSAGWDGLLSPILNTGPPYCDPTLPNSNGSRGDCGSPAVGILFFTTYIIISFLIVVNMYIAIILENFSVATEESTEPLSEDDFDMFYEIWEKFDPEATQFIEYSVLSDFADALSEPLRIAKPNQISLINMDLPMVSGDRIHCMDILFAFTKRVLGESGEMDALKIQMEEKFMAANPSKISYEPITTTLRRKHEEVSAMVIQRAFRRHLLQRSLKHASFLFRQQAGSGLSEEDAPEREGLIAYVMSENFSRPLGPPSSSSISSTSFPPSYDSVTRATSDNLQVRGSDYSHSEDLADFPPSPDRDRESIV

[4] = read-out: Flux NaV1.6 IC50, Trex HEK293 cells, ANG2 dye, arithmetic mean

SMILES | IC50 [1] [µM] | IC50 [2] [µM] | IC50 [1, 4] [µM] | IC50 [3] [µM]
C[C@@H]1CN(Cc2ccccc2F)CC[C@@H]1Oc1ccc(S(=O)(=O)Nc2nccs2)cc1Cl (relative stereo) [Example 10A, 3-chloro-4-((cis-1-(2-fluorobenzyl)-3-methylpiperidin-4-yl)oxy)-N-(thiazol-2-yl)benzenesulfonamide] | 1.27 | – | – | –
C[C@@H]1CN(Cc2ccccc2F)CC[C@H]1Oc1ccc(S(=O)(=O)Nc2nccs2)cc1Cl (relative stereo) [Example 10B, 3-chloro-4-((trans-1-(2-fluorobenzyl)-3-methylpiperidin-4-yl)oxy)-N-(thiazol-2-yl)benzenesulfonamide] | 1.16 | – | – | –
C[C@H]1C[C@@H](Oc2ccc(S(=O)(=O)Nc3nccs3)cc2Cl)CCN1Cc1ccccc1 (relative stereo) [Example 72, 4-((cis-1-benzyl-2-methylpiperidin-4-yl)oxy)-3-chloro-N-(thiazol-2-yl)benzenesulfonamide] | – | 6.81 | 6.07 | 13.5
C[C@@H]1C[C@@H](Oc2ccc(S(=O)(=O)Nc3nccs3)cc2Cl)CCN1Cc1ccccc1 (relative stereo) [Example 73, 4-((trans-1-benzyl-2-methylpiperidin-4-yl)oxy)-3-chloro-N-(thiazol-2-yl)benzenesulfonamide] | – | 5.85 | 1.88 | 13.1
C[C@@H]1CN(Cc2ccccc2)C[C@@H]1Nc1ccc(S(=O)(=O)Nc2nccs2)cc1Cl (relative stereo) [Example 75, 4-((cis-1-benzyl-4-methylpyrrolidin-3-yl)amino)-3-chloro-N-(thiazol-2-yl)benzenesulfonamide] | – | 4.19 | 0.661 | 8.99
CC1(C)CNCCC1Oc1ccc(S(=O)(=O)Nc2ncns2)cc1Cl (centres unmarked) [Example 1, 3-chloro-4-((3,3-dimethylpiperidin-4-yl)oxy)-N-(1,2,4-thiadiazol-5-yl)benzenesulfonamide 2,2,2-trifluoroacetate] | – | > 30 | 10.3 | > 30
Cc1cc(C)cc(CN2CCC(Oc3ccc(S(=O)(=O)Nc4ncns4)cc3Cl)C(C)(C)C2)c1 (centres unmarked) [Example 3, 3-chloro-4-((1-(3,5-dimethylbenzyl)-3,3-dimethylpiperidin-4-yl)oxy)-N-(1,2,4-thiadiazol-5-yl)benzenesulfonamide 2,2,2-trifluoroacetate] | – | 20.8 | 6.59 | 6.17
CC1(C)CN(Cc2cc(Cl)cc(Cl)c2)CCC1Oc1ccc(S(=O)(=O)Nc2ncns2)cc1Cl (centres unmarked) [Example 4, 3-chloro-4-((1-(3,5-dichlorobenzyl)-3,3-dimethylpiperidin-4-yl)oxy)-N-(1,2,4-thiadiazol-5-yl)benzenesulfonamide 2,2,2-trifluoroacetate] | – | > 30 | > 30 | 11
O=S(=O)(Nc1nccs1)c1ccc(OC2CCN(Cc3cccc(OC(F)F)c3)CC2)c(Cl)c1 [Example 5, 3-chloro-4-((1-(3-(difluoromethoxy)benzyl)piperidin-4-yl)oxy)-N-(thiazol-2-yl)benzenesulfonamide] | – | 6.3 | 1.36 | 4.37
O=S(=O)(Nc1nccs1)c1ccc(OC2CCN(CC3CCCCC3)CC2)c(Cl)c1 [Example 6, 3-chloro-4-((1-(cyclohexylmethyl)piperidin-4-yl)oxy)-N-(thiazol-2-yl)benzenesulfonamide 2,2,2-trifluoroacetate] | – | 12.2 | 7.52 | > 30
O=S(=O)(Nc1nccs1)c1ccc(OC2CCN(C3CCCCC3)CC2)c(Cl)c1 [Example 7, 3-chloro-4-((1-cyclohexylpiperidin-4-yl)oxy)-N-(thiazol-2-yl)benzenesulfonamide 2,2,2-trifluoroacetate] | – | > 30 | 27.3 | > 30
O=S(=O)(Nc1nccs1)c1ccc(OC2CCN(Cc3ccccc3C(F)(F)F)CC2)c(Cl)c1 [Example 12, 3-chloro-N-(thiazol-2-yl)-4-((1-(2-(trifluoromethyl)benzyl)piperidin-4-yl)oxy)benzenesulfonamide] | – | 13.3 | 13.3 | 6.35
O=S(=O)(Nc1nccs1)c1ccc(OC2CCN(Cc3ccccc3Cl)CC2)c(Cl)c1 [Example 13, 3-chloro-4-((1-(2-chlorobenzyl)piperidin-4-yl)oxy)-N-(thiazol-2-yl)benzenesulfonamide] | – | 6.83 | 1.7 | 5.09
Cc1ccnc(CN2CCC(Oc3ccc(S(=O)(=O)Nc4nccs4)cc3Cl)CC2)c1 [Example 14, 3-chloro-4-((1-((4-methylpyridin-2-yl)methyl)piperidin-4-yl)oxy)-N-(thiazol-2-yl)benzenesulfonamide] | – | > 30 | 0.878 | 10.7
O=S(=O)(Nc1nccs1)c1ccc(O[C@H]2C[C@H]3CC[C@@H](C2)N3Cc2ccccc2)c(Cl)c1 [Example 15, 4-(((1R,3r,5S)-8-benzyl-8-azabicyclo[3.2.1]octan-3-yl)oxy)-3-chloro-N-(thiazol-2-yl)benzenesulfonamide] | – | 9.23 | 2.57 | 23.9
O=S(=O)(Nc1nccs1)c1cc(Cl)c(O[C@@H]2C[C@H]3CC[C@@H](C2)N3Cc2cccc(Cl)c2)cc1F [Example 18, 5-chloro-4-(((1R,3s,5S)-8-(3-chlorobenzyl)-8-azabicyclo[3.2.1]octan-3-yl)oxy)-2-fluoro-N-(thiazol-2-yl)benzenesulfonamide 2,2,2-trifluoroacetate] | – | > 30 | 1.06 | > 30
CC1(Oc2ccc(S(=O)(=O)Nc3nccs3)cc2Cl)CCN(Cc2ccccc2)CC1 [Example 19, 4-((1-benzyl-4-methylpiperidin-4-yl)oxy)-3-chloro-N-(thiazol-2-yl)benzenesulfonamide] | – | 4.96 | 3.17 | 4.68
CC1(Oc2ccc(S(=O)(=O)Nc3nccs3)cc2Cl)CCN(Cc2cccc(Cl)c2)CC1 [Example 20, 3-chloro-4-((1-(3-chlorobenzyl)-4-methylpiperidin-4-yl)oxy)-N-(thiazol-2-yl)benzenesulfonamide] | – | 5.93 | 5.62 | 6.1
CC1(Oc2ccc(S(=O)(=O)Nc3nccs3)cc2Cl)CCN(Cc2cccc(C(F)F)c2)CC1 [Example 21, 3-chloro-4-((1-(3-(difluoromethyl)benzyl)-4-methylpiperidin-4-yl)oxy)-N-(thiazol-2-yl)benzenesulfonamide] | – | 3.15 | 3.18 | 4.69
O=S(=O)(Nc1nccs1)c1ccc(OC2CCN(Cc3ccc(F)cc3)CC2)c(Cl)c1 [Example 22, 3-chloro-4-((1-(4-fluorobenzyl)piperidin-4-yl)oxy)-N-(thiazol-2-yl)benzenesulfonamide 2,2,2-trifluoroacetate] | – | 14.8 | 3.64 | 16.1
CC(c1ccccc1)N1CCC(Oc2ccc(S(=O)(=O)Nc3nccs3)cc2Cl)CC1 (centres unmarked) [Example 52, 3-chloro-4-((1-(1-phenylethyl)piperidin-4-yl)oxy)-N-(thiazol-2-yl)benzenesulfonamide] | – | – | 0.305 | 14.4
Cc1cc(S(=O)(=O)Nc2cscn2)c(F)cc1N(C)[C@H]1CCN(Cc2ccccc2O)C1 [Example 113, (S)-2-fluoro-4-((1-(2-hydroxybenzyl)-pyrrolidin-3-yl)(methyl)amino)-5-methyl-N-(thiazol-4-yl)benzenesulfonamide] | – | 17.9 | 0.258 | –
COc1cccc(CN2CC[C@H](N(C)c3cc(F)c(S(=O)(=O)Nc4cscn4)cc3Cl)C2)c1 [Example 219, (S)-5-chloro-2-fluoro-4-((1-(3-methoxybenzyl)pyrrolidin-3-yl)(methyl)amino)-N-(thiazol-4-yl)benzenesulfonamide] | – | 7.53 | 3.2 | –
O=S(=O)(Nc1cscn1)c1cc(Cl)c(OC2CCN(Cc3ccccc3)CC2)cc1F [Example 238, 4-((1-benzylpiperidin-4-yl)oxy)-5-chloro-2-fluoro-N-(thiazol-4-yl)benzenesulfonamide 2,2,2-trifluoroacetate] | – | 27.8 | 2.1 | –
O=S(=O)(Nc1cscn1)c1ccc(O[C@@H]2C[C@H]3CC[C@@H](C2)N3Cc2cccc(C(F)F)c2)c(Cl)c1 [Example 256, 3-chloro-4-(((1R,3s,5S)-8-(3-(difluoromethyl)benzyl)-8-azabicyclo[3.2.1]octan-3-yl)oxy)-N-(thiazol-4-yl)benzenesulfonamide] | – | – | – | 6.72
Cc1cc(S(=O)(=O)Nc2cscn2)c(F)cc1N(C)[C@@H]1CCN(Cc2ccccc2)C1 [Example 272, (R)-4-((1-benzylpyrrolidin-3-yl)(methyl)amino)-2-fluoro-5-methyl-N-(thiazol-4-yl)benzenesulfonamide] | – | – | 3.77 | –
Cc1cc(S(=O)(=O)Nc2cscn2)ccc1N(C)[C@H]1CCN(Cc2ccccc2)C1 [Example 284, (S)-4-((1-benzylpyrrolidin-3-yl)(methyl)amino)-3-methyl-N-(thiazol-4-yl)benzenesulfonamide 2,2,2-trifluoroacetate] | – | 10.5 | 0.718 | –
C[C@H](c1ccccc1)N1CCC(Oc2ccc(S(=O)(=O)Nc3ccon3)cc2Cl)CC1 [Example 305, (R)-3-chloro-N-(isoxazol-3-yl)-4-((1-(1-phenylethyl)piperidin-4-yl)oxy)benzenesulfonamide formate] | – | – | – | > 30
Cc1cc(S(=O)(=O)Nc2cscn2)c(F)cc1N(C)[C@H]1CCN(Cc2cccc(F)c2)C1 [compound 157, (S)-2-fluoro-4-((1-(3-fluorobenzyl)pyrrolidin-3-yl)(methyl)amino)-5-methyl-N-(thiazol-4-yl)benzenesulfonamide] | – | – | 0.211 | 18.6
